According to paper PMC5110245, “Identification and reconstitution of the rubber biosynthetic machinery on rubber particles from Hevea brasiliensis” (eLife, 2016):

What was measured:
Type in all cases: biochemical
HRT1–HRBP–REF = target: T1, HRT1–HRBP–REF (Hevea brasiliensis, UniProt Q8L5B7); assay: […]-IPP incorporation into rubber, allylic substrate dependency; settings: allylic primer 15 µM; 100 µM [4-14C]IPP, 5 mM MgCl2, pH 7.5, 30 °C, 8 h; on WRPs
T1 construct: gene Hpt4; full-length CDSs, wheat germ cell-free co-translation onto CHAPS-washed Hevea rubber particles (WRPs); HRBP His6-tagged; stoichiometry not known; endogenous background present; Rubber elongation factor protein

HRT1 = target: T2, HRT1 (Hevea brasiliensis, UniProt Q8L5B7); assay: […]-IPP incorporation into rubber, net of vector-control WRPs; settings: 15 µM FPP, 5 mM MgCl2, pH 7.5, 30 °C; on WRPs; labelled compound
T2 construct: gene Hpt4; full-length CDS in pEU-E01-His-TEV-MCS-N2; wheat germ cell-free translation onto CHAPS-washed Hevea rubber particles (WRPs), which keep small amounts of endogenous proteins
T2 sequence (Q8L5B7 1-290): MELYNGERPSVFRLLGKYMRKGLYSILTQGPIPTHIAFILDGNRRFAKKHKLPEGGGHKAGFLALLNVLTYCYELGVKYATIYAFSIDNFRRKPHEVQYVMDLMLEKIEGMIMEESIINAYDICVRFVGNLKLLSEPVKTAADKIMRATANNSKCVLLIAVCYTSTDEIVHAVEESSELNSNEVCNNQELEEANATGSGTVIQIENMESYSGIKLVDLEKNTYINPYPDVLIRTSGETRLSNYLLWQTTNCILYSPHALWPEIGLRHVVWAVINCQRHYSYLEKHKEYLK

LsCPT3-LsCPTL2 = target: T3, LsCPT3-LsCPTL2 (Lactuca sativa, UniProt A0A0A0QMT0); assay: as above; settings: 15 µM FPP, 5 mM MgCl2, pH 7.5, 30 °C; on Hevea WRPs; labelled compound
T3 construct: full-length synthetic CDSs (LsCPT3 in pEU-E01-His-TEV-MCS-N2, LsCPTL2 in pEU-E01-His-TEV-MCS-C1); wheat germ cell-free co-translation onto CHAPS-washed Hevea rubber particles (WRPs); with cis-prenyltransferase-like 2
T3 sequence (A0A0A0QMT0 1-296): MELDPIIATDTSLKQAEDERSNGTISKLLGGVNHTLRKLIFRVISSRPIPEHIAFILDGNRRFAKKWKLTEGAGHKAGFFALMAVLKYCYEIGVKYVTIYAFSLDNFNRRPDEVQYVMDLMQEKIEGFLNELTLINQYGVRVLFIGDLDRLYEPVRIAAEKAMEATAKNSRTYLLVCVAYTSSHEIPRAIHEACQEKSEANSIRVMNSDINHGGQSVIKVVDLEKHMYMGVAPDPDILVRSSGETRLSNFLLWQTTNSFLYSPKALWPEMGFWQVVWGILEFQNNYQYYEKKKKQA
T3 sequence (A0A0A0QP73 1-244 partner): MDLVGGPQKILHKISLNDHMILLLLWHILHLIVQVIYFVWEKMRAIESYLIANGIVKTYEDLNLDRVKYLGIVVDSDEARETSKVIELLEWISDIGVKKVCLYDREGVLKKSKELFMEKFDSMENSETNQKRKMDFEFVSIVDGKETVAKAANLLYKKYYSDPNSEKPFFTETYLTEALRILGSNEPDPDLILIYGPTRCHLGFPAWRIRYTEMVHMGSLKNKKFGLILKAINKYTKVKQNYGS

T1 sequence (P15252 2-138, one chain of several): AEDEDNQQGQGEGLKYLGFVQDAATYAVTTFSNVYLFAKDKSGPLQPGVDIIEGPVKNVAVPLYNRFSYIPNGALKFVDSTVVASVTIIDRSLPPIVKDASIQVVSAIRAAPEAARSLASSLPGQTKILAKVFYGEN
T1 sequence (A0A1E1GJI0 entry or part of it, one chain of several, further chain): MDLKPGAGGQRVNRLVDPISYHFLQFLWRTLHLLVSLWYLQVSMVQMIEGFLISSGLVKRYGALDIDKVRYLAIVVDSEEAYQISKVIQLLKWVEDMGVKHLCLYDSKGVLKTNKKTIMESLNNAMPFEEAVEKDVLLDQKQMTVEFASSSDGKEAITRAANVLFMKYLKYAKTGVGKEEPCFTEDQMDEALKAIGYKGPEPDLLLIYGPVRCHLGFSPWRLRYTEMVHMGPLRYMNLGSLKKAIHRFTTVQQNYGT

Structure (SMILES) | 14C-IPP incorporation into rubber, allylic substrate dependency (HRT1–HRBP–REF) | 14C-IPP incorporation into rubber, net of vector-control WRPs (HRT1) | 14C-IPP incorporation into rubber, net of vector-control WRPs (LsCPT3-LsCPTL2)
CC(C)=CCC/C(C)=C/CC/C(C)=C/COP(=O)(O)OP(=O)(O)O [FPP, E,E-farnesyl diphosphate] | the RTase was most active with FPP (C15) |  | 
C=C(C)CCOP(=O)(O)OP(=O)(O)O [IPP, isopentenyl diphosphate] |  | introduction of HRT1 onto WRPs distinctly increased the RTase activity (Figure 9A) | Co-expression of LsCPTL2 with LsCPT3 resulted in an increase of the activity of LsCPT3
